A value given as a limit tells only on which side of the number the result lay.

human DGKζ, sequence (Q13574 other isoform, or with tags, fused parts or gaps): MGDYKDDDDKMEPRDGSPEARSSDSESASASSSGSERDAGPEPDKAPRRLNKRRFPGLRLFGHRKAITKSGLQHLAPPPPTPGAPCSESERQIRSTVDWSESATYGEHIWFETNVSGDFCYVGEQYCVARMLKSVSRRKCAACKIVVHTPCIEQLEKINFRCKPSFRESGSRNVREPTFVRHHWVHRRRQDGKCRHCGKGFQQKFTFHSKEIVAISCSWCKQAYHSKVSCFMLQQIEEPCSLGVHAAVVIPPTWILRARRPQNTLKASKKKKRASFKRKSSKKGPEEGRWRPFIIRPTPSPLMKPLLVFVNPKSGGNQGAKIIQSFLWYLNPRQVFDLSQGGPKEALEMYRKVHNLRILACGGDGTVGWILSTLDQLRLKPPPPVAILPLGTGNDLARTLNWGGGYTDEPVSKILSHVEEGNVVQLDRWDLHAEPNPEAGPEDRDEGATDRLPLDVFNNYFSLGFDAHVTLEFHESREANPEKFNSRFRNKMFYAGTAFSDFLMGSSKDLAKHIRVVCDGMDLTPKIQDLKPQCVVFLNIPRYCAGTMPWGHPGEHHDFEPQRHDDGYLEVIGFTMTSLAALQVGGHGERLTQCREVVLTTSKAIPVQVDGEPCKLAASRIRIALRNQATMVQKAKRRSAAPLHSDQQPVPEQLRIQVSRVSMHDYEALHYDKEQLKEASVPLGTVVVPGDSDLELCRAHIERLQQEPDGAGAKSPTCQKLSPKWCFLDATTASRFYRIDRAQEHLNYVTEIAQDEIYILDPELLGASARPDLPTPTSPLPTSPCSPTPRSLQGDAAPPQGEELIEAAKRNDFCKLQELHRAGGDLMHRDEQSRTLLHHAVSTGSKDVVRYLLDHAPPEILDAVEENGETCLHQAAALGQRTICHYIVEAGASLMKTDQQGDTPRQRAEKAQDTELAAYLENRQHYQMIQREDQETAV

This assay has as its target human DGKζ (Homo sapiens (Human), UniProt Q13574). Description: Human DGKζ kinase activity inhibition assay (ADP-Glo). It is filed as biochemical. To be noted: in vitro human DGKζ kinase activity inhibition assay; read-out: IC50. Summed up:
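ADP-Glo luminescence, reflecting ADP produced, served as the readout of activity. Full-length human DGKζ, FLAG-tagged at the C-terminus and insect-cell expressed, was used; lipid substrate mix was sonicated with octyl-β-D-glucopyranoside in 50 mM MOPS pH 7.4.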
In general terms: ADP-Glo turns the ADP formed in a reaction into a luminescent signal.
In general, IC50 refers to the midpoint of a concentration-inhibition curve. As to `CC(C(N)=O)N(c1ccc(F)cc1)c1nc(N)c(C(=O)c2ccc(OCC(=O)Nc3ncnc4[nH]ncc34)cc2)s1` (racemic) [Example 131, rac-2-(N-[4-amino-5-[4-[2-oxo-2-(1H-pyrazolo[3,4-d]pyrimidin-4-ylamino)ethoxy]benzoyl]thiazol-2-yl]-4-fluoro-anilino)propanamide], the IC50 was 180 nM. The value for `CCOC(=O)C(C)(C)Oc1ccc(C(=O)c2sc(N(c3ccc(F)cc3)C(C)C(N)=O)nc2N)cc1` (racemic) [Example 39, Rac-ethyl 2-[4-[4-amino-2-(N-[2-amino-1-methyl-2-oxo-ethyl]-4-fluoro-anilino)thiazole-5-carbonyl]phenoxy]-2-methyl-propanoate] was 19 nM; that for `COc1cccc(CNC(=O)COc2ccc(C(=O)c3sc(N(c4ccc(F)cc4)C(C)C(N)=O)nc3N)cc2)c1` (racemic) [Example 95, rac-2-(N-(4-amino-5-[4-[2-[(3-methoxyphenyl)methylamino]-2-oxo-ethoxy]benzoyl]thiazol-2-yl]-4-fluoro-anilino)propanamide] was 39 nM; that for `CC(C(N)=O)N(c1ccc(F)cc1)c1nc(N)c(C(=O)c2ccc(N3CCOCC3)cc2)s1` (racemic) [Example 178, rac-2-(N-[4-amino-5-(4-morpholinobenzoyl)thiazol-2-yl]-4-fluoro-anilino)propanamide] was 48 nM. On to `CC(C(N)=O)N(c1ccc(F)cc1)c1nc(N)c(C(=O)c2ccc(N3CCC(C)(C#N)CC3)nc2)s1` (racemic) [Example 285, rac-2-(N-[4-amino-5-[6-(4-cyano-4-methyl-1-piperidy!)pyridine-3-carbonyl]thiazol-2-yl]-4-fluoro-anilino)propanamide], for which the IC50 is 68 nM. As for `CC(C(N)=O)N(c1ccc(F)c(F)c1)c1nc(N)c(C(=O)c2cccnc2)s1` (single isomer, unassigned) [Example 184.2, 2-(N-[4-amino-5-(pyridine-3-carbonyl)thiazol-2-yl]-3,4-difluoro-anilino)propanamide], the concentration for half-maximal inhibition (IC50) is over 20000 nM.

For the compound `COc1ccc(C(=O)c2sc(N(c3ccc(OC(F)F)c(F)c3)C(C)C(N)=O)nc2N)cc1` (racemic) [Example 205, rac-2-[N-[4-amino-5-(4-methoxybenzoyl)thiazol-2-yl]-4-(difluoromethoxy)-3-fluoro-anilino]propanamide], the IC50 came out at 54 nM. On to `COc1ccc(C(=O)c2sc(N(c3ccc(Cl)c(F)c3)[C@H](C)C(N)=O)nc2N)cc1` [Example 59.1, (R)-2-(N-[4-amino-5-(4-methoxybenzoyl)thiazol-2-yl]-4-chloro-3-fluoro-anilino)propanamide], for which the half-maximal inhibitory concentration (IC50) came out at 4 nM.

`CC(C(N)=O)N(c1ccc(OC(F)F)nc1)c1nc(N)c(C(=O)c2ccc(OC(F)F)nc2)s1` (racemic) [Example 255, rac-2-[[4-amino-5-[6-(difluoromethoxy)pyridine-3-carbonyl]thiazol-2-yl]-[6-(difluoromethoxy)-3-pyridyl]amino]propanamide]: the half-inhibitory concentration (IC50) was 76 nM.

Take `CC(C(N)=O)N(c1ccc(F)nc1)c1nc(N)c(C(=O)c2ccccc2)s1` (racemic) [Example 233, rac-2-[(4-amino-5-benzoyl-thiazol-2-yl)-(6-fluoro-3-pyridyl)amino]propanamide]: the 50% inhibitory concentration (IC50) worked out at 267 nM. The value for `CC(C(N)=O)N(c1ccc(F)cc1)c1nc(N)c(C(=O)c2ccc(OCC(=O)NCC(O)CO)cc2)s1` (racemic) [Example 116, 2-(N-[4-amino-5-(4-[2-(2,3-dihydroxypropylamino)-2-oxo-ethoxy]benzoyl]thiazol-2-yl]-4-fluoro-anilino)propanamide] was 581 nM; that for `CC(C(N)=O)N(c1ccc(F)cc1)c1nc(N)c(C(=O)c2ccc(OCC(=O)Nc3ccc(Cl)cc3)cc2)s1` (racemic) [Example 119, rac-2-(N-[4-amino-5-[4-[2-(4-chloroanilino)-2-oxo-ethoxy]benzoyl]thiazol-2-yl]-4-fluoro-anilino)propanamide] was 4.54 nM; that for `CC(C(N)=O)N(c1ccc(F)c(F)c1)c1nc(N)c(C(=O)c2ccc(OCc3ccccc3)cc2)s1` (single isomer, unassigned) [Example 165.1, 2-(N-[4-amino-5-(4-benzyloxybenzoyl)thiazol-2-yl]-3,4-difluoro-anilino)propanamide] was 2 nM. The value for `CC(C(N)=O)N(c1ccc(F)cc1)c1nc(N)c(C(=O)c2ccc(OC(F)(F)F)cc2)s1` (single isomer, unassigned) [Example 40.2, 2-(N-[4-amino-5-[4-(trifluoromethoxy)benzoyl]thiazol-2-yl]-4-fluoro-anilino)propanamide] was 7.08 nM.

For the compound `CC(C(N)=O)N(c1ccc(F)cc1)c1nc(N)c(C(=O)c2ccc(S(C)(=O)=O)cc2)s1` (racemic) [Example 19, rac-2-(N-[4-amino-5-(4-methylsulfonylbenzoyl)thiazol-2-yl]-4-fluoro-anilino)propanamide], the 50% inhibitory concentration (IC50) was 200 nM.

Turning to `CC(C(N)=O)N(c1ccc(F)cc1)c1nc(N)c(C(=O)c2ccc(NC(=O)OCc3ccccc3)cc2)s1` (racemic) [Example 169, rac-benzyl N-[4-[4-amino-2-(N-(2-amino-1-methyl-2-oxo-ethyl)-4-fluoro-anilino)thiazole-5-carbonyl]phenyl]carbamate], the concentration for half-maximal inhibition (IC50) came to 3 nM. The value for `COc1ccc(N(c2nc(N)c(C(=O)c3ccccc3)s2)C(C)C(N)=O)cn1` (racemic) [Example 227, rac-2-[(4-amino-5-benzoyl-thiazol-2-yl)-(6-methoxy-3-pyridyl)amino]propanamide] was 393 nM.

As for `CC(C(N)=O)N(c1ccc(F)cc1)c1nc(N)c(C(=O)c2ccc(NC(=O)OCc3ccccc3)nc2)s1` (racemic) [Example 256, rac-benzyl N-[5-[4-amino-2-(N-(2-amino-1-methyl-2-oxo-ethyl)-4-fluoro-anilino)thiazole-5-carbonyl]-2-pyridyl]carbamate], the IC50 was 9 nM.

For the compound `CC(C(N)=O)N(c1ccc(OC(F)(F)F)c(Cl)c1)c1nc(N)c(C(=O)c2ccc(OC(F)F)nc2)s1` (racemic) [Example 226, rac-2-[N-[4-amino-5-[6-(difluoromethoxy)pyridine-3-carbonyl]thiazol-2-yl]-3-chloro-4-(trifluoromethoxy)anilino]propanamide], the IC50 was 87 nM. Consider `CC(C(N)=O)N(c1cccnc1)c1nc(N)c(C(=O)c2ccccc2)s1` (single isomer, unassigned) [Example 79.2, 2-[(4-amino-5-benzoyl-thiazol-2-yl)-(3-pyridyl)amino]propanamide], for which the 50% inhibitory concentration (IC50) amounted to 2390 nM. `CC(C(N)=O)N(c1ccc(Cl)cc1)c1nc(N)c(C(=O)c2ccc(F)cc2)s1` (single isomer, unassigned) [Example 37.1, 2-(N-[4-amino-5-(4-fluorobenzoyl)thiazol-2-yl]-4-chloro-anilino)propanamide]: the concentration for half-maximal inhibition (IC50) worked out at 2000 nM.

With `CC(C(N)=O)N(c1ccc(OC(F)(F)F)cc1)c1nc(N)c(C(=O)c2ccccc2)s1` (racemic) [Example 24, rac-2-[N-(4-amino-5-benzoyl-thiazol-2-yl)-4-(trifluoromethoxy)anilino]propanamide], the half-inhibitory concentration (IC50) was 115 nM.

Values taken from patent US11964953B2, “Substituted aminothiazoles as DGKzeta inhibitors for immune activation” (Bayer Aktiengesellschaft, priority 2020, dated 2024).
